# From patent US11465978B2, “Anthranilic amides and the use thereof” (THE ADMINISTRATORS OF THE TULANE EDUCATIONAL FUND, priority 2013, dated 2022)
# Counter-ions that a name gives are not always drawn.
# Key:
# pERK1/2 = assay: Western blot, inhibition of EGF-mediated formation of pERK1/2 in MDA-MB-231 cells; type: cell-based; conditions: for pERK-½ decrease (%) / pERK-½ relative activity (%): Example 3 table, MDA-MB-231, EGF stimulation; for pERK-½ decrease (%): DMSO = 0; for inhibition at 10 µM: Homo sapiens, MDA-MB-231, Table 1, MDA-MB-231, compounds 10 μM 30 min, then EGF 50 ng/mL 15 min, read-out: cellular pERK1/2 decrease (%); for pERK-½ relative activity (%): DMSO = 100; for cellular pERK1/2 activation (printed in the decrease column): Table 1, cell marked 'activation'
# Protocol: (§1) FIG. 9 is a set of bar graphs showing a Western blot analysis of potential MEK5 inhibitors. The MDA-MB-231 triple negative breast cancer cell line was pretreated with compounds (10 μM) for 30 minutes followed by stimulation with epidermal growth factor (EGF, 50 ng/mL) for 15 minutes. Vehicle-treated cells were pretreated with DMSO for 30 minutes prior to EGF stimulation for 15 minutes. Protein visualization and quantification analysis were performed using LI-COR Odyssey Imager. * P<0.05 vs. Vehicle, one-way ANOVA followed by Tukey-Kramer test (n=3).
# (§2) A number of compounds were tested for their potential as MEK5 inhibitors. The MDA-MB-231 triple negative breast cancer cell line was pretreated with 10 μM of compounds 24, 9b, 9a, 9c, 9e, 9f, 9d, 9h, 23, 7, and 15 for 30 minutes followed by stimulation with epidermal growth factor (EGF, 50 ng/mL) for 15 minutes. Vehicle-treated cells and known MEK1/2 inhibitor cells were pretreated with DMSO and U0126 respectively for 30 minutes prior to EGF stimulation for 15 minutes. Protein visualization and quantification analysis was performed using LI-COR Odyssey Imager. The results of the Western blot analysis are shown in FIG. 9. * P<0.05 vs. Vehicle, one-way ANOVA followed by Tukey-Kramer test (n=3).
# (§3) MDA-MB-231 cells were grown on 10 cm cell culture plates [Sarstedt] in Dulbecco's Modified Eagle's Medium (DMEM; Gibco) with Ham's F12 Nutrient Mixture (1:1) (Invitrogen), 10% heat-inactivated FBS [Atlanta Biological and 0.5% penicillin/streptomycin [Gibco]. Cells were maintained at 37° C. with 5% CO2. Plating of the cells was done 36 hours before treatment in 35 mm culture plates [Sarstedt] and allowed to reach confluence. To test MEK-5 inhibitors, the cells were treated with epidermal growth factor (EGF; Sigma-Aldrich) 30 min after treatment with the compounds. 15 min after the addition of EGF, the cells were washed with 1×PBS [Sigma-Aldrich] and then lysed in 1% Triton X-100 buffer containing 20 mM Tris (pH 6.8), 137 mM NaCl, 25 mM beta glycerophosphate, 2 mM NaPPi, 2 mM EDTA, 1 mM Na3VO4, 10% glycerol, 5 μg/mL leupeptin, 5 μg/mL aprotinin, 2 mM benzamidine, 0.5 mM DTT, and 1 mM PMSF. The lysates were then centrifuged at 10,000 rpm for 10 min at 4° C.
# (§4) Total protein content was assessed by Bradford Bio-Rad protein assay (Cat. No. 500-0006, Bio-Rad, Hercules, Calif.) and 30 μg of protein was loaded on a 8% SDS-PAGE gel for phosphorylated and total ERK1/2 and ERK5 proteins. After running the samples, gels were transferred to a nitrocellulose membrane (Cat. No. 926-31092, Licor Biosciences, Lincoln, Nebr.). After transfer, membranes were washed for 5 min with 1×PBS and blocked for 1 h in a Casein Blocking Buffer (Cat. No. 927-40200, Licor Biosciences) at room temperature. Membranes were then incubated overnight at 4° C. in primary antibody in CBB with 0.2% Tween-20. Antibodies included rabbit anti-phospho-ERK1/2 (Dilution—1:1000, Cat. No. 9101, Cell Signaling, Beverly, Mass.), mouse anti-total ERK1/2 (Dilution—1:1000, Cat. No. 9107, Cell Signaling), and rabbit anti-total ERK5 (Dilution—1:1,000, Cat. No. 3372, Cell Signaling). Mouse anti-α-Tubulin (Dilution—1:10,000, Cat. No. T5168, Sigma-Aldrich) was used as a loading control. After incubation with primary antibody, blots were washed in 1×PBS solution with 0.2% Tween-20 (1×PBS-T) and incubated with goat anti-rabbit (Dilution—1:10,000, Cat. No. 926-68021, LICOR Biosciences) and goat anti-mouse (Dilution—1:10,000, Cat. No. 926-32210, LICOR Biosciences) secondary antibodies for 1 h at room temperature. After washing the membranes with 1×PBS-T, the protein bands were visualized on an Odyssey Infrared Imager and quantified with Odyssey software (LICOR Biosciences).
# pERK5 = assay: Western blot, inhibition of EGF-mediated formation of pERK5 in MDA-MB-231 cells; type: cell-based; conditions: for pERK-5 decrease (%) / pERK-5 relative activity (%): Example 3 table, MDA-MB-231, EGF stimulation; for pERK-5 decrease (%): DMSO = 0; for inhibition at 10 µM: Homo sapiens, MDA-MB-231, Table 1, MDA-MB-231, compounds 10 μM 30 min, then EGF 50 ng/mL 15 min, read-out: cellular pERK5 decrease (%); for pERK-5 relative activity (%): DMSO = 100; for cellular pERK5 activation (printed in the decrease column): Table 1, cell marked 'activation'
# Protocol: as §1, §2, §3, §4
Structure (SMILES),pERK-½ decrease (%) (pERK1/2),inhibition at 10 µM (pERK1/2) [%],pERK-5 decrease (%) (pERK5),inhibition at 10 µM (pERK5) [%],other results
"O=C(O)c1ccc(F)c(F)c1Nc1ccc(I)cc1F [Compound 7, 3,4-difluoro-2-((2-fluoro-4-iodophenyl)amino)benzoic acid]",98.5,98.5,20.1,20.1,
"CN(C)C(=O)c1ccc(F)c(F)c1Nc1ccc(I)cc1F [Compound 9a, 3,4-difluoro-2-((2-fluoro-4-iodophenyl)amino)-N,N-dimethylbenzamide]",87.3,87.3,0.2,0.2,
"CCN(CC)C(=O)c1ccc(F)c(F)c1Nc1ccc(I)cc1F [Compound 9b, N,N-diethyl-3,4-difluoro-2-((2-fluoro-4-iodophenyl)amino)benzamide]",5.5,5.5,,,pERK-5 relative activity (%) (pERK5): 7.4%; cellular pERK5 activation (printed in the decrease column) (pERK5): activation (−7.4) %
"CNC(=O)c1ccc(F)c(F)c1Nc1ccc(I)cc1F [Compound 9c, 3,4-difluoro-2-((2-fluoro-4-iodophenyl)amino)-N-methylbenzamide]",99.6,99.6,20.4,20.4,
"CCNC(=O)c1ccc(F)c(F)c1Nc1ccc(I)cc1F [Compound 9d, N-ethyl-3,4-difluoro-2-((2-fluoro-4-iodophenyl)amino)benzamide]",98.6,98.6,8.5,8.5,
"COC(=O)c1ccc(F)c(F)c1Nc1ccc(I)cc1F [Compound 9e, Methyl 3,4-difluoro-2-((2-fluoro-4-iodophenyl)amino)benzoate]",98.9,98.9,13.0,13,
"O=C(c1ccc(F)c(F)c1Nc1ccc(I)cc1F)N1CCNCC1 [Compound 9f, (3,4-difluoro-2-((2-fluoro-4-iodophenyl)amino)phenyl)(piperazin-1-yl)methanone hydrochloride]",99.0,99,,,pERK-5 relative activity (%) (pERK5): 6.2%; cellular pERK5 activation (printed in the decrease column) (pERK5): activation (+4.4) %
"CC(C)(C)OC(=O)N1CCN(C(=O)c2ccc(F)c(F)c2Nc2ccc(I)cc2F)CC1 [Compound 9g, Tert-butyl 4-(3,4-difluoro-2-((2-fluoro-4-iodophenyl)amino)benzoyl)piperazine-1-carboxylate]",70.9,70.9,8.4,8.4,
"CN(C)CCN(C)C(=O)c1ccc(F)c(F)c1Nc1ccc(I)cc1F [Compound 9h, N-(2-(dimethylamino)ethyl)-3,4-difluoro-2-((2-fluoro-4-iodophenyl)amino)-N-methylbenzamide hydrochloride]",27.9,28.2,9.4,9,
"O=C(O)c1ccc(F)c(F)c1Nc1ccccc1 [Compound 12, 3,4-difluoro-2-(phenylamino)benzoic acid]",7.1,,10.4,,
"O=C(O)c1ccc(F)c(F)c1Nc1ccccc1F [Compound 13, 3,4-difluoro-2-((2-fluorophenyl)amino)benzoic acid]",,,11.1,,pERK-½ relative activity (%) (pERK1/2): 7.1%
CN1CCN(C(=O)c2ccc(F)c(F)c2Nc2ccccc2)CC1 [Compound 15],,,82.4,82.4,pERK-½ relative activity (%) (pERK1/2): 8.5%; cellular pERK1/2 activation (printed in the decrease column) (pERK1/2): activation (+8.5) %
"CN1CCN(C(=O)c2ccccc2Nc2ccccc2)CC1 [Compound 23, (4-methylpiperazin-1-yl)(2-(phenylamino)phenyl)methanone]",29.3,29.6,71,,cellular pERK1/2 activation (printed in the decrease column) (pERK1/2): +5.5%
"CN1CCN(C(=O)c2ccccc2Nc2ccc(I)cc2F)CC1 [Compound 24, (2-((2-fluoro-4-iodophenyl)amino)phenyl)(4-methylpiperazin-1-yl)methanone hydrochloride]",33.5,33.5,30.9,20.9,
"N#CC(=C(/N)Sc1ccccc1N)/C(C#N)=C(\N)Sc1ccccc1N [Compound U0126, reference compound]",99.6,,43,,
O=C(c1ccc(F)c(F)c1Nc1ccc(I)cc1F)N1CCOCC1 [IC-3-93],,47.8,,76.3,
O=C(c1ccc(F)c(F)c1Nc1ccc(I)cc1F)N1CCCCC1 [IC-3-97],,42.4,,87.1,
O=C(NCCO)c1ccc(F)c(F)c1Nc1ccc(I)cc1F [IC-3-102],,-31.1,,47.9,
O=C(N[C@@H](CO)C(=O)O)c1ccc(F)c(F)c1Nc1ccc(I)cc1F [IC-3-111],,85,,,
O=C(N[C@H](CO)C(=O)O)c1ccc(F)c(F)c1Nc1ccc(I)cc1F [IC-3-117],,80.8,,127,
CN1CCN(C(=O)c2ccc(F)c(F)c2Nc2ccc(I)cc2F)CC1 [IC-D-122b],,39,,33,
"O=C(NOC[C@H](O)CO)c1ccc(F)c(F)c1Nc1ccc(I)cc1F [PD 0325901, reference compound]",99.7,,95.9,,
"CN(c1ccc(I)cc1F)c1c(C(=O)O)ccc(F)c1F [SC-2-32, 3,4-difluoro-2-((2-fluoro-4-iodophenyl)(methyl)amino)benzoic acid]",33.5,,,,pERK-5 relative activity (%) (pERK5): 5.5%
"NC(=O)c1ccc(F)c(F)c1Nc1ccccc1F [SC-2-37, 3,4-difluoro-2-((2-fluorophenyl)amino)benzamide]",52.8,,56.1,,melting point: 157.6 to 161.2 °C
"CN1CCN(C(=O)c2ccc(F)c(F)c2Nc2ccccc2F)CC1.O=C(O)/C=C/C(=O)O [SC-2-45, (3,4-difluoro-2-((2-fluorophenyl)amino)phenyl)(4-methylpiperazin-1-yl)methanone mono-fumarate]",16.5,,40.5,,
"CCOc1cc(N2CCC(O)CC2)ccc1Nc1ncc2c(n1)N(C)c1ccccc1C(=O)N2C [XMD8-92, reference compound]",50.1,,95.2,,
